Laboratory results: patent publication US10363230B2, “6-shogaol derivatives and activities thereof” (North Carolina Agricultural and Technical State University, priority 2017, dated 2019)
“Also recorded” adds a separate entry of the source.

Assays:
[1] = Biotransformation of xenobiotics in zebrafish embryos (LC/MS); format: in vivo; conditions: 5 μM in incubation medium, 8 hpf to 24 hpf
Protocol: Fifty zebrafish embryos at the 8 hour-post-fertilization (hpf) stage were incubated at 28.5° C. in 0.3× Danieau's solution (19.3 mM NaCl, 0.23 mM KCl, 0.13 mM MgSO4, 0.2 mM Ca(NO3)2, 1.7 mM HEPES, pH 7.0) with or without 5 μM 18 and 25-27, respectively. At 24 hpf, embryos were dechorionated manually and the chorions were carefully removed one by one from the culture medium. The zebrafish embryos were harvested and kept at −80° C. till analyzed by LC/MS.
200 μL Sodium acetate buffer solution (pH 5.0) was added to 50 zebrafish embryos. Samples were homogenized for 90 s by an Omni Bead Ruptor Homogenizer (Kennesaw, Ga., United States of America). 10 μL 10% ascorbic acid and 300 μL sodium acetate buffer were added to the homogenates. The mixture was incubated in the presence of β-glucuronidase (250 U) and sulfatase (3 U) at 37° C. for 45 min, and then 600 μL MeOH with 1% acetic acid was added. The resulting mixture was vortexed for 30 s and then centrifuged at 17000 g for 10 min. The supernatant was removed and evaporated under a gentle stream of nitrogen. The residue was reconstituted in 150 μL 90% MeOH with 0.2% acetic acid (AA), and 10 μL was analyzed directly by LC/MS.
(§1) LC/MS analysis was carried out with a Thermo-Finnigan Spectra System, which consisted of an Accela high speed MS pump, an Accela refrigerated autosampler, and an LCQ Fleet ion trap mass detector (Thermo Electron, San Jose, Calif., United States of America) incorporated with an electrospray ionization (ESI) interface. A Gemini-NX C18 column (150 mm×4.6 mm i.d., 5 μm; Phenomenex, Torrance, Calif., United States of America) was used for separation at a flow rate of 0.3 mL/min. The column was eluted with 100% A (5% aqueous methanol with 0.2% formic acid) for 1 min, followed by linear increases in B (95% aqueous methanol with 0.2% formic acid) to 55% from 1 to 4 min, to 85% from 4 to 25 min, then to 100% B from 25 to 30 min, and then with 100% B from 30 to 35 min. The column was then re-equilibrated with 100% A for 5 min. The LC eluent was introduced into the ESI interface. The positive ion polarity mode was set for the ESI source with the voltage on the ESI interface maintained at approximately 4.6 kV. Nitrogen gas was used as the sheath gas and auxiliary gas. Optimized source parameters, including capillary temperature (260° C.), sheath gas flow rate (31 arbitrary units), auxiliary gas flow rate (16 units), tube lens (34 V), and capillary voltage 9 V, were tuned using authentic samples. The collision-induced dissociation (CID) was conducted with an isolation width 2 Da and normalized collision energy of 35 for MS^2. The mass range was measured from 100 to 800 m/z. Data acquisition was performed with Xcalibur version 2.0 (Thermo Electron, San Jose, Calif., United States of America).

heme oxygenase-1 (HO-1) = test: Western blotting of HO-1 expression in CCD 841 CoN cells; format: cell-based, human
Protocol: Human normal colonic epithelial cells (CCD 841 CoN) were grown in Eagle's Minimum Essential Medium with 10% fetal bovine serum and 1% penicillin/streptomycin, and maintained at 37° C. in a 100% humidified atmosphere of 5% CO2 and 95% air. Fresh growth medium was added to the cells every two days until confluent. Cells were planted in 145×20 mm flat-bottomed tissue culture dishes and growth to 70-80% confluence and then treated with compound 27 for various doses and time points. At the end of incubation period, cell lysates were prepared in ice-cold Cell Lysis Buffer (Cell Signaling, Danvers, Mass., United States of America) with 1% protease inhibitor cocktail and 1% phenylmethylsulfonyl fluoride (Sigma, St. Louis, Mo., United States of America). Protein concentrations were measured using BCA Protein Assay Kit (Thermo Scientific, Rockford, Ill., United States of America). […] The bound complexes were detected with SuperSignal Chemiluminescent Substract (Thermo Scientific, Rockford, Ill., United States of America). The immunoblot bands were quantified by densitometry analysis, and the ratio to β-actin was calculated and presented.

[2] = Cysteine conjugates in mouse urine after oral gavage (LC/MS); format: in vivo; conditions: oral gavage 200 mg/kg, urine collected in 24 h
Protocol: as §1, with “Optimized source parameters, including capillary temperature (260° C.), sheath gas flow rate (31 arbitrary units), auxiliary gas flow rate (16 units), tube lens (34 V), and capillary voltage 9 V, were tuned using authentic samples. The collision-induced dissociation (CID) was conducted with an isolation width 2 Da and normalized collision energy of 35 for MS^2.” left out, “Data acquisition was performed with Xcalibur version 2.0 (Thermo Electron, San Jose, Calif., United States of America).” left out
Enzymatic deconjugation of mouse urine was performed as described previously with slight modifications. […] The resulting suspension was centrifuged at 17,000 g for 5 min, and 10 μL of supernatant was analyzed directly by LC/MS.

CCCCCCCC(=O)/C=C/c1ccc(O)c(O)c1 [Compound 27]
Cysteine conjugates (metabolites) detected in zebrafish embryos [1]: four cysteine conjugates 36, 36a, 37, and 37b | HO-1 protein expression, time dependence (heme oxygenase-1 (HO-1); CCD 841 CoN cells, 10 μM for 3, 6, 12 and 24 h, vs control, p<0.05 for all time points): significantly increased HO-1 expression; also recorded: increased HO-1 expression in a time-dependent manner | HO-1 protein expression, dose dependence (heme oxygenase-1 (HO-1); CCD 841 CoN cells, 5, 10 and 20 μM for 24 h, vs untreated control, p<0.05 for all concentrations): significantly increased HO-1 protein expression; also recorded: increased HO-1 expression in a dose-dependent manner | Cysteine conjugates (metabolites) detected in mouse urine [2]: conjugate 36 and its reduced form 36a, three additional conjugates 37, 37a, and 37b
